The source of these data is patent US20050026903A1, “CCK-1 receptor modulators” (priority 2003, published 2005).

Series [1] has as its target T1, CCK-1 receptor (Homo sapiens, UniProt P32238).
T1 construct: expressed in transfected cells; membranes
T1 sequence (P32238 1-428): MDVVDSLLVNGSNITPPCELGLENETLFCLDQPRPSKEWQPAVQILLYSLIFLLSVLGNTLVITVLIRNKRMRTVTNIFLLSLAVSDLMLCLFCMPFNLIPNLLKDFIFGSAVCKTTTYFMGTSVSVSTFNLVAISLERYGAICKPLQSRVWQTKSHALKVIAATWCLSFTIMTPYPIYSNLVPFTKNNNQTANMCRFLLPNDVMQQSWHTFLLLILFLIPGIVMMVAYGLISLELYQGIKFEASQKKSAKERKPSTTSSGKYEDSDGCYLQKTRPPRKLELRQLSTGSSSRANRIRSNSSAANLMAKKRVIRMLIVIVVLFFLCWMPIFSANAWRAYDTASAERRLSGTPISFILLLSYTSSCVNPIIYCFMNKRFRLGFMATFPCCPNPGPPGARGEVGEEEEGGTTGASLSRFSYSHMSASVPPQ
In words: CCK-1 receptor radioligand binding assay ([125I]-BH-CCK-8S competition, membranes of stably transfected CHO-K1 cells). The method, then:
CHO-K1 cells that had undergone stable transfection with the CCK-1 receptor were grown in DMEM supplemented with L-glutamine (2 mM), penicillin (50 units/mL) and streptomycin (50 μg/mL). Cells were cultured under continuous G418 selection (2 mM) and were harvested using a rubber cell scraper. CHO-K1 cells were sub-cultured a maximum of ten times before being reseeded from the original stocks.
Membranes were prepared from the stably transfected CHO-K1 cells. Frozen cell pellets (−40° C.) were thawed in 14 mL of buffer A (10 mM HEPES, 130 mM NaCl, 4.7 mM KCl, 5 mM MgCl, 1 mM EGTA and 15.4 mg/100 mL bacitracin at pH 7.2), adapted from Harper et al. (Br. J. Pharmacol. (1996) 118, pp 1717-1726). The thawed pellets were homogenized using a Polytron PT-10 (7×1 s). […]
All assays were conducted in 96-well plates (GF/B millipore filter plates) using buffer A, with 0.3 μM PD-134,308, for the dilutions. […] Total binding of [125I]—BH—CCK-8S was determined in the presence of 15 μL of buffer A. Non-specific binding of [125I]—BH—CCK-8S was determined in the presence of 15 μL of 100 μM 2-naphthalenesulphonyl L-aspartyl-(2-phenethyl)amide (2-NAP: see R. A. Hull et al., Br. J. Pharmacol. (1993) 108, pp 734-740), a CCK-1 receptor selective antagonist that is structurally unrelated to the radioligand [125I]—BH—CCK-8S. […] Bound radioactivity was determined using a gamma counter (count time=1 min). […]

Where a name gives a salt, the structure may show the parent alone. Read-outs that look alike come from different tables or passages of the source.

On to `COc1ccc(-n2nc(C[C@H](C([O])=O)c3cccc(C)c3)cc2-c2ccc(Cl)c(Cl)c2)cc1` (as salt: sodium) [Example 1, (S)-Sodium; 3-[5-(3,4-dichloro-phenyl)-1-(4-methoxy-phenyl)-1H-pyrazol-3-yl]-2-m-tolyl-propionate], for which the melting point lay within 295.5 to 297.5 °C.

Turning to `COc1ccc(-n2nc(CC(C(=O)O)c3cccc4ccccc34)cc2-c2ccc3c(c2)OCO3)cc1` (racemic) [Example 27, 3-[5-Benzo[1,3]dioxol-5-yl-1-(4-methoxy-phenyl)-1H-pyrazol-3-yl]-2-naphthalen-1-yl-propionic acid], in series [1] ([125I]-BH-CCK-8S competition, membranes of CHO-K1 cells stably transfected with CCK-1 receptor, 0.3 μM PD-134,308 present, read-out: pKi (converted)), the Ki was 6.31 nM.

Take `COc1ccc(-n2nc(C[C@H](C([O])=O)c3cccc(C)c3)cc2-c2ccc(Cl)c(Cl)c2)cc1` [Example 1, (S)-Sodium; 3-[5-(3,4-dichloro-phenyl)-1-(4-methoxy-phenyl)-1H-pyrazol-3-yl]-2-m-tolyl-propionate]: the Ki in series [1] was 10 nM.

The term melting point denotes the temperature of the solid-liquid transition.
